In patent publication US20130030017A1, “QUINOLINE DERIVATIVES AS ANTIBACTERIAL AGENTS” (priority 2005, published 2013):
Values after ≈ are worked out from the molar mass of the structure shown.

Legend:
Format in all cases: cell-based
[1] = tested on: Enterococcus faecalis (ATCC29212); assay: Microtitre plate assay, IC90 determination (EFA 29212); settings: Enterococcus faecalis, ATCC29212, 24 h, 90% inhibitory concentration for bacterial growth, 37° C., resazurin fluorescence
Method: (§1) The bacteria used in this study were grown overnight in flasks containing 100 ml Mueller-Hinton Broth (Becton Dickinson—cat. no. 275730) in sterile de-ionized water, with shaking, at 37° C. Stocks (0.5 ml/tube) were stored at −70° C. until use. Bacteria titrations were performed in microtiter plates and colony forming units (CFUs) were determined. In general, an inoculum level of approximately 100 CFUs was used for susceptibility testing.
(§2) Flat-bottom, sterile 96-well plastic microtiter plates were filled with 180 μl of sterile deionized water, supplemented with 0.25% BSA. Subsequently, stock solutions (7.8× final test concentration) of compounds were added in 45 μl volumes in column 2 Serial five-fold dilutions (45 μl in 180 μl) were made directly in the microtiter plates from column 2 to reach column 11. Untreated control samples with (column 1) and without (column 12) inoculum were included in each microtiter plate. Depending on the bacteria type, approximately 10 to 60 CFU per well of bacteria inoculum (100 TCID50), in a volume of 100 μl in 2.8× Mueller-Hinton broth medium, was added to the rows A to H, except column 12. The same volume of broth medium without inoculum was added to column 12 in row A to H. The cultures were incubated at 37° C. for 24 hours under a normal atmosphere (incubator with open air valve and continuous ventilation). At the end of incubation, one day after inoculation, the bacterial growth was quantitated fluorometrically. Therefore resazurin (0.6 mg/ml) was added in a volume of 20 μl to all wells 3 hours after inoculation, and the plates were re-incubated overnight. A change in colour from blue to pink indicated the growth of bacteria. The fluorescence was read in a computer-controlled fluorometer (Cytofluor Biosearch) at an excitation wavelength of 530 nm and an emission wavelength of 590 nm. The % growth inhibition achieved by the compounds was calculated according to standard methods. The IC90 (expressed in μg/ml) was defined as the 90% inhibitory concentration for bacterial growth.

[2] = tested on: Streptococcus pyogens (ATCC8668); assay: Microtitre plate assay, IC90 determination (SPY 8668); settings: Streptococcus, ATCC8668, 24 h, 90% inhibitory concentration for bacterial growth, 37° C., resazurin fluorescence
Method: as §1, §2

[3] = tested on: Pseudomonas aeruginosa (ATCC27853); assay: Microtitre plate assay, IC90 determination (PAE 27853); settings: Pseudomonas aeruginosa, ATCC27853, 24 h, 90% inhibitory concentration for bacterial growth, 37° C., resazurin fluorescence
Method: as §1, §2

[4] = tested on: Streptococcus pneumoniae (ATCC6305); assay: Microtitre plate assay, IC90 determination (SPN 6305); settings: 90% inhibitory concentration for bacterial growth, 37° C., resazurin fluorescence; for IC90 SPN 6305: 24 hours; for IC90: Streptococcus pneumoniae, ATCC6305, 24 h
Method: as §1, §2

[5] = tested on: Staphylococcus aureus (ATCC29213); assay: Microtitre plate assay, IC90 determination (STA 29213); settings: 90% inhibitory concentration for bacterial growth, 37° C., resazurin fluorescence; for IC90: Staphylococcus aureus, ATCC29213, 24 h; for IC90 STA 29213: 24 hours
Method: as §1, §2

Q: With `COc1ccc2nc(OC)c(C(c3ccccc3)C(O)(CCc3ccccc3)CCN(C)C)cc2c1` (centres unmarked) [Compound 3] as the molecule, how does the IC90 [1] read?
A: The IC90 was 9.7 µg/mL (≈ 20 µM).

Q: What about the IC90 [2] of the same molecule?
A: Its IC90 is 9.7 µg/mL (≈ 20 µM).

Q: What about the IC90 [3] of the same molecule?
A: Its IC90 is 9.7 µg/mL (≈ 20 µM).

Q: And the “IC90 SPN 6305” value [4]?
A: Its value is 3.4 µg/mL (≈ 7.02 µM).

Q: What about the IC90 [5] of the same molecule?
A: Its IC90 is 12.2 µg/mL (≈ 25.2 µM).

Q: How did the “IC90 SPN 6305” value [4] turn out when `COc1ccc2nc(OC)c(C(c3ccccc3)C(O)(CCc3ccccc3)CCN(C)C)cc2c1` (centres unmarked) [Compound 4] was run?
A: Its value is 9.7 µg/mL (≈ 20 µM).

Q: What about the “IC90 STA 29213” value [5] of the same molecule?
A: Its value is 10.9 µg/mL (≈ 22.5 µM).

Q: What does the source list for `CSc1nc2ccc(Br)cc2cc1C(c1ccccc1)C(O)(CCc1ccccc1)CCN(C)C` (centres unmarked) [Compound 11]?
A: IC90 [1]: 43.7 µg/mL (≈ 79.5 µM); IC90 [2]: 8.7 µg/mL (≈ 15.8 µM); IC90 [3]: 43.7 µg/mL (≈ 79.5 µM); IC90 SPN 6305 [4]: 3.9 µg/mL (≈ 7.1 µM); IC90 STA 29213 [5]: 11.0 µg/mL (≈ 20 µM)

Q: For `COc1nc2ccc(Br)cc2cc1C(c1ccccc1)C(O)(CCc1ccccc1)CCN(C)C` (centres unmarked) [Compound 17], which “IC90 SPN 6305” value [4] is on record?
A: Its value is 4.8 µg/mL (≈ 9 µM).

Q: And the “IC90 STA 29213” value [5]?
A: Its value is 8.5 µg/mL (≈ 15.9 µM).

Q: Which “IC90 SPN 6305” value [4] does the source give for `COc1nc2ccc(Br)cc2cc1C(c1ccccc1)C(O)(CCc1ccc(C(C)C)cc1)CCN(C)C` (centres unmarked) [Compound 23] here?
A: Its value is 0.3 µg/mL (≈ 0.521 µM).

Q: What about the “IC90 STA 29213” value [5] of the same molecule?
A: The value was 16.2 µg/mL (≈ 28.1 µM).

Q: How did the IC90 [4] turn out when `COc1nc2ccc(Br)cc2cc1C(c1ccccc1)C(O)(CCc1ccc(C(C)C)cc1)CCN(C)C` (centres unmarked) [Compound 24] was run?
A: The IC90 was 0.3 µg/mL (≈ 0.521 µM).

Q: And the “IC90 STA 29213” value [5]?
A: The value was 2.6 µg/mL (≈ 4.52 µM).

Q: Which results are given for `COc1nc2ccc(Br)cc2cc1C(c1ccccc1)C(O)(CCc1ccc(F)cc1)CCN(C)C` (centres unmarked) [Compound 25]?
A: IC90 SPN 6305 [4]: 1.7 µg/mL (≈ 3.08 µM); IC90 STA 29213 [5]: 7.8 µg/mL (≈ 14.1 µM)

Q: `COc1nc2ccc(Br)cc2cc1C(c1ccccc1)C(O)(CCc1ccc(F)cc1)CCN(C)C` (centres unmarked) [Compound 27] was tested. Which “IC90 SPN 6305” value [4] did it give?
A: Its value is 2.0 µg/mL (≈ 3.63 µM).

Q: And the “IC90 STA 29213” value [5]?
A: Its value is 1.7 µg/mL (≈ 3.08 µM).

Q: Which “IC90 SPN 6305” value [4] does the source give for `CSc1nc2ccc(C)cc2cc1C(c1ccccc1)C(O)(CCc1ccccc1)CCN(C)C` (centres unmarked) [Compound 30] here?
A: The value was 1.9 µg/mL (≈ 3.92 µM).

Q: And the “IC90 STA 29213” value [5]?
A: Its value is 7.7 µg/mL (≈ 15.9 µM).

Q: Which results are given for `CNCCC(O)(CCc1ccc(F)cc1)C(c1ccccc1)c1cc2ccccc2nc1OC` (centres unmarked) [Compound 38]?
A: IC90 SPN 6305 [4]: 0.3 µg/mL (≈ 0.654 µM); IC90 STA 29213 [5]: 1.5 µg/mL (≈ 3.27 µM)

Q: Which results are given for `CNCCC(O)(CCc1ccc(F)cc1)C(c1ccccc1)c1cc2cc(Br)ccc2nc1OC` (centres unmarked) [Compound 40]?
A: IC90 SPN 6305 [4]: 0.3 µg/mL (≈ 0.558 µM); IC90 STA 29213 [5]: 1.5 µg/mL (≈ 2.79 µM)

Q: Which IC90 [4] does the source give for `COc1nc2ccc(CO)cc2cc1C(c1ccccc1)C(O)(CCc1ccccc1)CCN(C)C` (centres unmarked) [Compound 58] here?
A: Its IC90 is 8.6 µg/mL (≈ 17.7 µM).

Q: And the IC90 [5]?
A: Its IC90 is 8.6 µg/mL (≈ 17.7 µM).

Q: `COc1nc2ccc(Br)cc2cc1C(c1ccc(Cl)cc1)C(O)(CCc1ccc(Cl)cc1)CCN(C)C` (centres unmarked) [Compound 75] was tested. Which “IC90 SPN 6305” value [4] did it give?
A: The value was 3.4 µg/mL (≈ 5.64 µM).

Q: What about the “IC90 STA 29213” value [5] of the same molecule?
A: Its value is 3.0 µg/mL (≈ 4.98 µM).

Q: How did the “IC90 SPN 6305” value [4] turn out when `COc1nc2ccc(Br)cc2cc1C(c1ccc(Cl)cc1)C(O)(CCc1ccc(Cl)cc1)CCN(C)C` (centres unmarked) [Compound 76] was run?
A: The value was 0.4 µg/mL (≈ 0.664 µM).

Q: What about the IC90 [5] of the same molecule?
A: Its IC90 is 2.1 µg/mL (≈ 3.49 µM).

Q: `COc1ccc(C(c2cc3cc(Br)ccc3nc2OC)C(O)(CCc2ccc(F)cc2)CCN(C)C)cc1` (centres unmarked) [Compound 85] was tested. Which “IC90 SPN 6305” value [4] did it give?
A: Its value is 2.1 µg/mL (≈ 3.61 µM).

Q: And the “IC90 STA 29213” value [5]?
A: Its value is 4.1 µg/mL (≈ 7.05 µM).

Q: With `COc1nc2ccc(Br)cc2cc1C(c1ccc(Cl)cc1)C(O)(CCc1ccc(C)cc1)CCN(C)C` (centres unmarked) [Compound 86] as the molecule, how does the IC90 [4] read?
A: The IC90 was 2.1 µg/mL (≈ 3.61 µM).

Q: What about the “IC90 STA 29213” value [5] of the same molecule?
A: The value was 41.2 µg/mL (≈ 70.8 µM).

Q: How did the IC90 [4] turn out when `COc1nc2ccc(Br)cc2cc1C(c1ccc(Cl)cc1)C(O)(CCc1ccc(C(F)(F)F)cc1)CCN(C)C` (centres unmarked) [Compound 89] was run?
A: The IC90 was 2.3 µg/mL (≈ 3.62 µM).

Q: And the IC90 [5]?
A: The IC90 was 22.6 µg/mL (≈ 35.5 µM).

Q: How did the “IC90 SPN 6305” value [4] turn out when `COc1nc2ccc(Br)cc2cc1C(c1ccc(Cl)cc1)C(O)(CCc1cccc(OC(F)(F)F)c1)CCN(C)C` (centres unmarked) [Compound 90] was run?
A: The value was 2.6 µg/mL (≈ 3.99 µM).

Q: And the “IC90 STA 29213” value [5]?
A: Its value is 16.4 µg/mL (≈ 25.2 µM).

Q: Which “IC90 SPN 6305” value [4] does the source give for `COc1nc2ccc(Br)cc2cc1C(c1ccc(Cl)cc1)C(O)(CCc1cccc(OC(F)(F)F)c1)CCN(C)C` (centres unmarked) [Compound 91] here?
A: Its value is 0.3 µg/mL (≈ 0.46 µM).

Q: What about the IC90 [5] of the same molecule?
A: The IC90 was 32.7 µg/mL (≈ 50.2 µM).
